From patent US10525148B2, “Systems and methods for preclinical models of metastases” (The Translational Genomics Research Institute, priority 2014, dated 2020)

Assays:
ERK phosphorylation = test: Immunohistochemistry with anti-phosphorylated ERK antibody (FIG. 14); format: in vivo
Description: FIG. 14 is an immunohistochemistry study of tissue from the patient whose samples were detailed in FIGS. 12 and 13. In this study, an anti-phosphorylated ERK antibody was used to assess ERK phosphorylation in the various treatment conditions.
Sections were mounted onto a glass slide and stained with reagents designed to detect proteins of interest by IHC staining. This allows samples of many or all of the tumor specimens to be stained at one time. IHC staining was performed to determine the presence or absence of specific proteins and was used to validate potential targets discovered by genome-wide experiments (as previously described).
(§1) Referring next to FIGS. 12 and 13, samples from a different patient (i.e., a patient with lung cancer that metastasized to portions the central nervous system) that were analyzed using some aspects of the instant invention. […] As a result of this analysis, it was determined that a MEK inhibitor (e.g., PD0325901) should be employed in the patient-derived xenograft context to assess potential for therapeutic efficacy.

[1] = have been shown; cited from earlier work
[2] = tested on: PDX from CNS metastasis (spine) of lung adenocarcinoma; test: Tumor volume of patient-derived xenograft (lung adenocarcinoma spine metastasis) in NSG mice under treatment (FIG. 7, FIG. 8); format: in vivo; settings: for tumor growth (tumor volume) during treatment: PDX in NSG mice, daily oral gavage for 18 days, SAHA 100 mg/kg, PD0325901 20 mg/kg, vs vehicle
Text: (§2) Immediately after surgical removal, fresh tissue was collected for heterotopic (flank) injection into NSG mice (NOD scid gamma mice—or mice that are on a NOD/ShiLtJ background with severe combined immune deficiency mutation and the IL2 receptor gamma chain deficiency). Excised patient tissue was placed in a culture dish with medium and minced into small pieces, such that minced tissue suspensions could be drawn through a 16-gauge needle. Minced tissues were placed in a conical tube, media was withdrawn, and matrigel was added to the wet tissue in a 1:1 volume ratio. Approximately 200 μl of the matrigel-tissue mixture was injected subcutaneously into the flanks of two to four mice, and tumors were allowed to develop until the tumors achieved a length of 1.0 to 2.0 cm in the longest dimension. Mice were then sacrificed by CO2 asphyxiation, and their flank tumors were immediately excised. Portions of each excised flank tumor were archived as frozen tissue and as paraffin-embedded tissue following formalin fixation. The remainder of each tumor was dispersed in DMEM, processed as described above and passed by injection into the flank of another NSG mouse.
In view of these changes in the patient's molecular profile, a treatment model was created. […] For example, in view of the G12C mutation in the KRAS gene and the additional amplification this same gene found in the subject's exome, a MEK inhibitor (i.e., a pharmaceutical that targets the mitogen-activated kinase kinase enzymes MEK1 and MEK2) was selected. In this experiment, the MEK inhibitor selected was PD0325901. In addition, the detection of the HDAC9 amplification drove the selection of a drug that has been previously shown efficacy of epigenetic therapy in metastatic lung cancer, suberanilohydroxamic acid or SAHA, which is a potent HDAC inhibitor.
After establishing which treatments were to be used in the case study, 15 animals comprising the PDX were divided into three groups. A first group received vehicle only via intraperitoneal injection each day for 18 days. A second group received SAHA (100 mg/kg) via oral gavage each day for 18 days and a third group received PD0325901 (20 mg/kg) each day for 18 days via oral gavage. Both during and after treatment, tumor volume was measured in each of the mice and the data is plotted in FIG. 7.
Additional experiments were conducted to investigate the potential impact of combination drugs. Referring now to FIG. 8, the drug treatment experiments described above were repeated with an additional pharmaceutical composition, 5-Azacytidine, which is a nucleoside analog that is an FDA-approved treatment for some forms of cancer. […]

[3] = tested on: patient-derived xenograft of lung cancer metastasized to the central nervous system (KRAS mutation); test: Tumor weight of patient-derived xenograft of lung cancer CNS metastasis (FIG. 13); format: in vivo, mice; settings: treatment conditions with MEK inhibitor
Text: as §2, with “Portions of each excised flank tumor were archived as frozen tissue and as paraffin-embedded tissue following formalin fixation. The remainder of each tumor was dispersed in DMEM, processed as described above and passed by injection into the flank of another NSG mouse.” left out
as §1

O=C(NOC[C@H](O)CO)c1ccc(F)c(F)c1Nc1ccc(I)cc1F [PD0325901]
ERK phosphorylation 14 days after treatment (ERK phosphorylation; 14 days after treatment): returned to vehicle-treatment levels
ERK phosphorylation in the metastasis cells during treatment (ERK phosphorylation; compared to vehicle alone): reduced ERK phosphorylation
blood-brain barrier penetration [1]: blood-brain barrier penetrant
tumor growth (tumor volume) during treatment ([2]; FIG. 7): little to no tumor growth
rate of tumor growth after treatment stopped ([2]; after day 18, FIG. 7): reduced compared to animals in the SAHA and control groups
gains in tumor weight [3]: most reduced gains in tumor weight

O=C(CCCCCCC(=O)Nc1ccccc1)NO [SAHA, suberanilohydroxamic acid]
blood-brain barrier penetration [1]: blood-brain barrier penetrant
tumor growth (tumor volume) during treatment ([2]; FIG. 7): reduced tumor growth

Nc1ncn([C@@H]2O[C@H](CO)[C@@H](O)[C@H]2O)c(=O)n1 [5-Azacytidine]
tumor volume growth, single agent and combinations with 5-Azacytidine ([2]; 5-Azacytidine 2.0 mg/kg intraperitoneal, combinations compared to SAHA and PD0325901 alone, FIG. 8): did not serve as an efficacious treatment
